57 substances from US8932597B2 (priority 2008, dated 2015) can be followed below.

Experiment [1] has as its system anti-M2 human monoclonal antibody Z3G1. The class given is binding.
Experiment [2] relates to HuM2e antibody 23K12. Format: binding, human.

For the substance “400 (SLLTEVETPIRNEWGCRCNVSSD; epitope peptide) [compound 400]”, the “Signal (peptides that bind to Z3G1)” value in experiment [1] is reported as 2476. Further, the “Signal (peptides that bind to 23K21 and 8I10)” value in experiment [2] was found to be 865.
For “329 (SLLTEVGSCLCEC; epitope peptide) [compound 329]”, the “Signal (peptides that show specific binding to Z3G1)” value in experiment [1] came out at 2558. Further, the “Signal (peptides that bind to 23K21 and 8I10)” value in experiment [2] is reported as 1708.
Regarding “465 (SLLTEVETPIRNEWGCRCNKSSD; epitope peptide) [compound 465]”, the “Signal (peptides that bind to Z3G1)” value in experiment [1] worked out at 2597. Also, the “Signal (peptides that bind to 23K21 and 8I10)” value in experiment [2] is recorded as 1254.
“662 (SLLTEVETPIRNFWGCRCNDSSD; epitope peptide) [compound 662]”: the “Signal (peptides that show specific binding to Z3G1)” value in experiment [1] came out at 2417. In addition, the “Signal (peptides that bind to 23K21 and 8I10)” value in experiment [2] was 747.
“632 (SLLTEVETPIRNEWGCRCVDSSD; epitope peptide) [compound 632]”: the “Signal (peptides that bind to Z3G1)” value in experiment [1] is reported as 2366. Moreover, the “Signal (peptides that bind to 23K21 and 8I10)” value in experiment [2] stood at 775.
As to “597 (SLLTEVETGIRNEWGCRCNDSSD; epitope peptide) [compound 597]”, the “Signal (peptides that show specific binding to Z3G1)” value in experiment [1] worked out at 2366. Further, the “Signal (peptides that bind to 23K21 and 8I10)” value in experiment [2] amounted to 835.
Consider “533 (CSLLTEVGSCLCEC; epitope peptide) [compound 533]”, for which the “Signal (peptides that show specific binding to Z3G1)” value in experiment [1] was 2625. In addition, the “Signal (peptides that bind to 23K21 and 8I10)” value in experiment [2] was 963.
With “396 (SLLTEVETPIRNEWGCRCNPSSD; epitope peptide) [compound 396]”, in experiment [1], the “Signal (peptides that bind to Z3G1)” value was determined as 2445. In experiment [2], the “Signal (peptides that bind to 23K21 and 8I10)” value worked out at 849.
As for “563 (SLLTEVETPIRNEWGGRCNDSSD; epitope peptide) [compound 563]”, in experiment [1], the “Signal (peptides that show specific binding to Z3G1)” value was found to be 2270. The “Signal (peptides that bind to 23K21 and 8I10)” value in experiment [2] is 887.
Taken in the same sequence, the figures for “650 (SLLTEVETPVRNEWGCRCNDSSD; epitope peptide) [compound 650]” were 2331 and 758.
As for “428 (SLLTEVETPIRNEWGCRCNDSPD; epitope peptide) [compound 428]”, the “Signal (peptides that bind to Z3G1)” value in experiment [1] was 2344. Besides, the “Signal (peptides that bind to 23K21 and 8I10)” value in experiment [2] turned out to be 772.
With “506 (SLCTEVGSLLCEV; epitope peptide) [compound 506]”, in experiment [1], the “Signal (peptides that show specific binding to Z3G1)” value was found to be 1863. Further, the “Signal (peptides that bind to 23K21 and 8I10)” value in experiment [2] was 1050.
Take “681 (SLLTEVETPIRNEWACRCNDSSD; epitope peptide) [compound 681]”: the “Signal (peptides that show specific binding to Z3G1)” value in experiment [1] was determined as 2431. For the same substance, in experiment [2], the “Signal (peptides that bind to 23K21 and 8I10)” value was 729.
For the substance “223 (CVETPIRNEWGSRSNDCSLLTEVETC; epitope peptide) [compound 223]”, the “Signal (peptides that show specific binding to Z3G1)” value in experiment [1] came out at 2233. Moreover, in experiment [2], the “Signal (peptides that bind to 23K21 and 8I10)” value is recorded as 905.
Consider “584 (SLLTEVETPIRNEWGCRRNDSSD; epitope peptide) [compound 584]”, for which, in experiment [1], the “Signal (peptides that show specific binding to Z3G1)” value amounted to 2383. For the same substance, the “Signal (peptides that bind to 23K21 and 8I10)” value in experiment [2] is reported as 855.
For “658 (SLLTEVYTPIRNEWGCRCNDSSD; epitope peptide) [compound 658]” the same measures were 1092 and 751.
For “581 (SLLTEVETYIRNEWGCRCNDSSD; epitope peptide) [compound 581]” the same measures were 2290 and 857.
Regarding “517 (SLLTEVETPIRNEMGCRCNDSSD; epitope peptide) [compound 517]”, in experiment [1], the “Signal (peptides that show specific binding to Z3G1)” value is 2398. The “Signal (peptides that bind to 23K21 and 8I10)” value in experiment [2] amounted to 1020.
As to “560 (SLLTEVETPIRNEWGCRCFDSSD; epitope peptide) [compound 560]”, the “Signal (peptides that bind to Z3G1)” value in experiment [1] is on record as 2538. In experiment [2], the “Signal (peptides that bind to 23K21 and 8I10)” value is recorded as 894.
Take “577 (SLLTEVETPIRNIWGCRCNDSSD; epitope peptide) [compound 577]”: the “Signal (peptides that show specific binding to Z3G1)” value in experiment [1] is recorded as 2490. In experiment [2], the “Signal (peptides that bind to 23K21 and 8I10)” value worked out at 862.
For “538 (LLLTEVETPIRNEWGCRCNDSSD; epitope peptide) [compound 538]”, the “Signal (peptides that show specific binding to Z3G1)” value in experiment [1] was determined as 1399. In addition, the “Signal (peptides that bind to 23K21 and 8I10)” value in experiment [2] turned out to be 950.
For “711 (CSLLTEVGSLCTEV; epitope peptide) [compound 711]”, in experiment [1], the “Signal (peptides that show specific binding to Z3G1)” value was 2409. Moreover, in experiment [2], the “Signal (peptides that bind to 23K21 and 8I10)” value amounted to 707.
Regarding “688 (SLLTEVETPIRNETGCRCNDSSD; epitope peptide) [compound 688]”, in experiment [1], the “Signal (peptides that show specific binding to Z3G1)” value is 2401. Besides, in experiment [2], the “Signal (peptides that bind to 23K21 and 8I10)” value is reported as 724.
For “351 (SLLCEVGSLLTEC; epitope peptide) [compound 351]” the same measures were 2438 and 1564.
Regarding “668 (SLLTEVETPIRNEWGYRCNDSSD; epitope peptide) [compound 668]”, the “Signal (peptides that show specific binding to Z3G1)” value in experiment [1] was found to be 2410. Also, the “Signal (peptides that bind to 23K21 and 8I10)” value in experiment [2] was 739.
In the case of “694 (SLLTEVETPIRNEWGCRCNESSD; epitope peptide) [compound 694]”, the “Signal (peptides that bind to Z3G1)” value in experiment [1] stood at 2282. For the same substance, the “Signal (peptides that bind to 23K21 and 8I10)” value in experiment [2] was determined as 720.
With “311 (SLLTEVGCLLTEV; epitope peptide) [compound 311]”, the “Signal (peptides that show specific binding to Z3G1)” value in experiment [1] is 1924. For the same substance, in experiment [2], the “Signal (peptides that bind to 23K21 and 8I10)” value came to 1859.
As for “294 (MSCLCECGMSLLTEV; epitope peptide) [compound 294]”, the “Signal (peptides that bind to Z3G1)” value in experiment [1] was found to be 1006. Moreover, the “Signal (peptides that bind to 23K21 and 8I10)” value in experiment [2] is reported as 2039.
Taken in the same sequence, the figures for “579 (SLLTEVETPIRNEWGCRWNDSSD; epitope peptide) [compound 579]” were 2364 and 859.
“692 (SLLTEVETPILNEWGCRCNDSSD; epitope peptide) [compound 692]”: in experiment [1], the “Signal (peptides that show specific binding to Z3G1)” value was determined as 2363. Further, the “Signal (peptides that bind to 23K21 and 8I10)” value in experiment [2] is 721.
As to “422 (SLLTEVETPIRNEWGCRCNDSFD; epitope peptide) [compound 422]”, in experiment [1], the “Signal (peptides that bind to Z3G1)” value turned out to be 2492. Further, the “Signal (peptides that bind to 23K21 and 8I10)” value in experiment [2] is listed as 947.
With “615 (SLLTEVETPIRNEWGCDCNDSSD; epitope peptide) [compound 615]”, the “Signal (peptides that show specific binding to Z3G1)” value in experiment [1] is on record as 2207. Moreover, in experiment [2], the “Signal (peptides that bind to 23K21 and 8I10)” value amounted to 810.
Take “690 (SLLTEVHTPIRNEWGCRCNDSSD; epitope peptide) [compound 690]”: the “Signal (peptides that show specific binding to Z3G1)” value in experiment [1] is given as 2057. For the same substance, in experiment [2], the “Signal (peptides that bind to 23K21 and 8I10)” value came out at 722.
Consider “282 (CSCLCEVGMSCLCEC; epitope peptide) [compound 282]”, for which the “Signal (peptides that bind to 23K21 and 8I10)” value in experiment [2] stood at 2705.
With “374 (SLLTECGCSLLTEC; epitope peptide) [compound 374]”, the “Signal (peptides that bind to 23K21 and 8I10)” value in experiment [2] worked out at 1451.
Still for that read-out and setting: in the case of “502 (CSCLCEVGSLLTEC; epitope peptide) [compound 502]” it was 1064.
Still for that read-out and setting: in the case of “295 (MSLCTEVGMSCLTEV; epitope peptide) [compound 295]” it was 2026; in that of “490 (SVLTEVETPIRNEWGCRCNDSSD; epitope peptide) [compound 490]”, 1109.
On the same count and under the same terms, for “604 (SLCTEVGSCLTEV; epitope peptide) [compound 604]” the value was 824.
For “578 (SLLTERETPIRNEWGCRCNDSSD; epitope peptide) [compound 578]”, in experiment [2], the “Signal (peptides that bind to 23K21 and 8I10)” value was 859.
With “481 (CSLLTECGMSLCTEV; epitope peptide) [compound 481]”, in experiment [2], the “Signal (peptides that bind to 23K21 and 8I10)” value was 1187.
Turning to “483 (CSLLTECGCSLLTEC; epitope peptide) [compound 483]”, the “Signal (peptides that bind to 23K21 and 8I10)” value in experiment [2] is given as 1177.
“574 (CLLTEVGSLLTEC; epitope peptide) [compound 574]”: the “Signal (peptides that bind to 23K21 and 8I10)” value in experiment [2] is 866.
Regarding “455 (CLCTCVGSLLTEC; epitope peptide) [compound 455]”, the “Signal (peptides that bind to 23K21 and 8I10)” value in experiment [2] is 1303.
For the substance “466 (SCLTEVGCSLLTEV; epitope peptide) [compound 466]”, the “Signal (peptides that bind to 23K21 and 8I10)” value in experiment [2] stood at 1250.
As for “514 (SLLTEGETPIRNEWGCRCNDSSD; epitope peptide) [compound 514]”, the “Signal (peptides that bind to 23K21 and 8I10)” value in experiment [2] was 1029.
In the case of “340 (MSCLCECGCSLLTEC; epitope peptide) [compound 340]”, in experiment [2], the “Signal (peptides that bind to 23K21 and 8I10)” value turned out to be 1652.
In the case of “325 (SLLTECGSLLTEV; epitope peptide) [compound 325]”, the “Signal (peptides that bind to 23K21 and 8I10)” value in experiment [2] was determined as 1770.
In the case of “306 (CSLLTECGMSLLTCV; epitope peptide) [compound 306]”, the “Signal (peptides that bind to 23K21 and 8I10)” value in experiment [2] is given as 1918.
Consider “589 (CSLLTECGMSCLTEV; epitope peptide) [compound 589]”, for which the “Signal (peptides that bind to 23K21 and 8I10)” value in experiment [2] is 846.
Still for that read-out and setting: in the case of “369 (SLLTEAETPIRNEWGCRCNDSSD; epitope peptide) [compound 369]” it was 1481.
With “487 (SLLTNVETPIRNEWGCRCNDSSD; epitope peptide) [compound 487]”, in experiment [2], the “Signal (peptides that bind to 23K21 and 8I10)” value stood at 1142.
Regarding “382 (CSLLTECGSLLTEV; epitope peptide) [compound 382]”, the “Signal (peptides that bind to 23K21 and 8I10)” value in experiment [2] turned out to be 1393.
Still for that read-out and setting: for “333 (SLLTCVGSLLTEC; epitope peptide) [compound 333]” the value was 1683.
Regarding “521 (SLLTAVETPIRNEWGCRCNDSSD; epitope peptide) [compound 521]”, the “Signal (peptides that bind to 23K21 and 8I10)” value in experiment [2] was found to be 1012.
As to “480 (SLLTECGCLCTCV; epitope peptide) [compound 480]”, the “Signal (peptides that bind to 23K21 and 8I10)” value in experiment [2] is reported as 1193.
For “335 (CSCLCEVGCSLLTEC; epitope peptide) [compound 335]”, in experiment [2], the “Signal (peptides that bind to 23K21 and 8I10)” value is on record as 1677.
